Laboratory results reported in patent US6627581B1, “Cyclopropyl-anellated 3-(4,5-dihydroisoxazol-3-yl)-substituted benzoylpyrazoles” (BASF Aktiengesellschaft, priority 1999, dated 2003).

Experiments:
Avena fatua = test: greenhouse post-emergence herbicidal test; assay type: in vivo; settings: Avena fatua (wild oat), application rates of 0.25 or 0.125 kg/ha, 2 to 4 weeks
Excerpt: (§1) The cultivation containers used were plastic pots containing loamy sand with approximately 3.0% of humus as the substrate. The seeds of the test plants were sown separately for each species.
(§2) For the post-emergence treatment, the test plants were first grown to a height of from 3 to 15 cm, depending on the plant habit, and only then treated with the active compounds which had been suspended or emulsified in water. The test plants were for this purpose either sown directly and grown in the same containers, or they were first grown separately as seedlings and transplanted into the test containers a few days prior to treatment. The application rate for the post-emergence treatment was 0.25 or 0.125 kg of a.s. (active substance)/ha.
(§3) Depending on the species, the plants were kept at 10-25° C. or 20-35° C. The test period extended over from 2 to 4 weeks. During this time, the plants were tended, and their response to the individual treatments was evaluated.
(§4) The evaluation was carried out using a scale from 0 to 100. 100 means no emergence of the plants, or complete destruction of at least the aerial parts and 0 means no damage, or normal course of growth.
(§5) The plants used in the greenhouse experiments were of the following species: […]

Amaranthus retroflexus = test: greenhouse post-emergence herbicidal test; assay type: in vivo; settings: Amaranthus retroflexus (pig weed), application rates of 0.25 or 0.125 kg/ha, 2 to 4 weeks
Excerpt: as §1, §2, §3, §4, §5

Echinochloa crus galli = test: greenhouse post-emergence herbicidal test; assay type: in vivo; settings: Echinochloa crus galli (barnyardgrass), application rates of 0.25 or 0.125 kg/ha, 2 to 4 weeks
Excerpt: as §1, §2, §3, §4, §5

Setaria faberi = test: greenhouse post-emergence herbicidal test; assay type: in vivo; settings: Setaria faberi (giant foxtail), application rates of 0.25 or 0.125 kg/ha, 2 to 4 weeks
Excerpt: as §1, §2, §3, §4, §5

Polygonum persicaria = test: greenhouse post-emergence herbicidal test; assay type: in vivo; settings: Polygonum persicaria (ladysthumb), application rates of 0.25 or 0.125 kg/ha, 2 to 4 weeks
Excerpt: as §1, §2, §3, §4, §5

Chenopodium album = test: greenhouse post-emergence herbicidal test; assay type: in vivo; settings: Chenopodium album (lambsquaters), application rates of 0.25 or 0.125 kg/ha, 2 to 4 weeks
Excerpt: as §1, §2, §3, §4, §5

SMILES: Cc1c(C(=O)c2cnn(C)c2O)ccc(S(C)(=O)=O)c1C1=NOC2CC12 (centres unmarked) [Compound 2.3, 4-[2-Methyl-3-(2-oxa-3-azabicyclo[3.1.0]hex-3-en-4-yl)-4-methyl-sulfonylbenzoyl]-5-hydroxy-1-methyl-1H-pyrazole]
- melting point: 106 to 112 °C

SMILES: Cc1c(C(=O)c2cnn(C(C)C)c2O)ccc(S(C)(=O)=O)c1C1=NOC2CC12C (centres unmarked) [Compound 2.14]
- melting point: 75 to 80 °C

SMILES: Cc1nn(C)c(O)c1C(=O)c1ccc(S(C)(=O)=O)c(C2=NOC3CC23)c1C (centres unmarked) [Compound 2.5]
- melting point: 89 to 91 °C
- post-emergence action (Avena fatua): very good
- post-emergence action (Amaranthus retroflexus): very good
- post-emergence action (Echinochloa crus galli): very good
- post-emergence action (Setaria faberi): very good
- post-emergence action (Polygonum persicaria): very good
- post-emergence action (Chenopodium album): very good

SMILES: Cc1c(C(=O)c2cnn(C(C)(C)C)c2O)ccc(S(C)(=O)=O)c1C1=NOC2CC12 (centres unmarked) [Compound 2.1, 4-[2-Methyl-3-(2-oxa-3-aza-bicyclo[3.1.0]hex-3-en-4-yl)-4-methylsulfonylbenzoyl]-5-hydroxy-1-tert-butyl-1H-pyrazole]
- melting point: 69 to 74 °C

SMILES: Cc1c(C(=O)c2cnn(C)c2O)ccc(S(C)(=O)=O)c1C1=NOC2CC12C (centres unmarked) [Compound 2.13]
- melting point: 99 to 103 °C

SMILES: Cc1c(C(=O)c2cnn(C(C)(C)C)c2O)ccc(S(C)(=O)=O)c1C1=NOC2CC12C (centres unmarked) [Compound 2.16]
- melting point: 110 to 115 °C

SMILES: Cc1c(C(=O)c2cnn(C(C)C)c2O)ccc(S(C)(=O)=O)c1C1=NOC2(C)CC12 (centres unmarked) [Compound 2.11]
- melting point: 67 to 70 °C

SMILES: Cc1c(C(=O)c2cnn(C(C)C)c2O)ccc(S(C)(=O)=O)c1C1=NOC2CC12 (centres unmarked) [Compound 2.4]
- melting point: 90 to 95 °C

SMILES: CCn1ncc(C(=O)c2ccc(S(C)(=O)=O)c(C3=NOC4CC34)c2C)c1O (centres unmarked) [Compound 2.2]
- melting point: 94 to 97 °C

SMILES: Cc1c(C(=O)c2cnn(C(C)(C)C)c2O)ccc(S(C)(=O)=O)c1C1=NOC2(C)CC12 (centres unmarked) [Compound 2.10]
- melting point: 90 to 95 °C

SMILES: Cc1c(C(=O)c2cnn(C)c2O)ccc(S(C)(=O)=O)c1C1=NOC2(C)CC12 (centres unmarked) [Compound 2.7]
- melting point: 98 to 102 °C
